{"source": "patent US20260137678A1", "about": "“METHODS FOR TREATING OR PREVENTING NEUROENDOCRINE TUMOR FORMATION USING XPO1 INHIBITORS” (priority 2022, published 2026)", "key": {"[1]": {"tested_on": "SOX2", "assay": "SOX2 mRNA and protein expression in selinexor-treated isogenic cell lines", "assay_type": "cell-based", "conditions": "H1563, 22PC and LnCap cell lines, selinexor 5 nM for 4 days", "text": "FIGS. 6A-6J: Exportin 1 inhibition downregulates SOX2 expression, hindering the acquisition of NE features. Pathway enrichment analysis on DEGs from enzalutamide versus control (FIG. 6A) and combo versus enzalutamide (FIG. 6B) conditions in the transcriptomic data from TP53/RB1 DKO 22PC xenografts treated in vivo and collected at control arm experimental endpoint (day 31). Categorized pathways of interest, previously involved in NE transformation^5,6, are shown. FIG. 6C: SOX2 mRNA expression in tumors divided by treatment condition. mRNA expression values are shown as TPM (n=4, 3, 3 and 3 tumors for the control, enzalutamide-, selinexor- and combo-treated tumors). […] Mice weights and tumor volumes were measured twice a week and mice were sacrificed when tumors reached humane endpoint (volume=1000 mm^3). […] For western blots and mRNA plots, representative images are shown. p-values were calculated using the Student's t-test (unpaired, heterogeneous variances, two-tailed). p-value legend: *<0.05, **<0.01, ***<0.001. […]\nProtein extraction and western blot were performed as previously described^24 from frozen cell pellets or flash-frozen tumor samples using RIPA lysis buffer with 1×HALT protease inhibitor cocktail (Thermo, #78446). […] Quantifications were performed with the Image Studio software (Version 3.1, Li-Cor). […]"}, "[2]": {"tested_on": "LuCAP49 (NEPC) PDX", "assay": "In vivo treatment of PDX, tumor growth and tumor western blots", "design": "species or system mice", "conditions": "tumors from in vivo treatment; selinexor added to cisplatin"}}}
{"smiles": "O=C(/C=C\\n1cnc(-c2cc(C(F)(F)F)cc(C(F)(F)F)c2)n1)NNc1cnccn1", "note": "[selinexor]", "values": [{"measurement": "induction of SOX2 mRNA and protein by TP53/RB1 inactivation", "setting": "[1]", "result": "prevented"}, {"measurement": "activation of the AKT pathway in tumors (western blot)", "setting": "[2]", "result": "suppressed"}]}
